Experimental data taken from patent US9513294B2, “Megastokes amino-triazolyl-BODIPY compounds and applications to live neuron staining and human serum albumin FA1 drug site probing” (National University of Singapore, priority 2012, dated 2016).

Tests used:
[1] = Absorbance and fluorescence emission spectra (SpectraMax M2); type: physicochemical; conditions: for λmax Abs. (nm) / λmax Em. (nm): MKAC compound library; for λmax Abs. (nm) / λmax Absorp. (nm): absorbance maximum; for λmax Em. (nm) / λmax Emission (nm): fluorescence emission maximum; for λmax Absorp. (nm) / λmax Emission (nm): MKCA compound library
Outline: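 Absorbance and emission maxima measured on a SpectraMax M2 spectrophotometer, which also gave quantum yield data; analysis in GraphPrism.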

[2] = Quantum yield measurements versus Acridine Yellow in EtOH; type: physicochemical; conditions: for φ (quantum yield): excitation 460 nm; for φ (%): quantum yield
Outline: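 Fluorescence quantum yield is relative to Acridine Yellow in EtOH (Φ 0.47), with excitation at 460 nm. Integrated emission at 510–700 nm was corrected for absorbance at the excitation wavelength and for solvent refractive index.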

λmax Abs. (nm) [1] [nm] | λmax Em. (nm) [1] [nm] | φ (%) ([2]; MKAC compound library) | λmax Absorp. (nm) [1] [nm] | λmax Emission (nm) [1] [nm] | φ (%) ([2]; MKCA compound library) | SMILES | also measured
– | – | – | – | – | – | CC(C)Cc1cn(-c2ccc3n2[B-](F)(F)[N+]2=C(N(C)Cc4ccccc4)C=CC2=C3c2ccc(N)cc2)nn1 [MK195-43] | λmax Absorp. ([1]; MK library, Table 5): 475 nm; λmax Emission ([1]; MK library, Table 5): 571 nm; φ (quantum yield) ([2]; MK library, Table 5): 0.41%
465 | 562 | 25.32 | – | – | – | CCOc1ccccc1CNC1=[N+]2C(=C(c3ccc(NC(C)=O)cc3)c3ccc(-n4cc(CC5CCCCC5)nn4)n3[B-]2(F)F)C=C1 [MKAC103-8] | –
461 | 569 | 1.54 | – | – | – | CC(=O)Nc1ccc(C2=C3C=CC(N4CCCC4)=[N+]3[B-](F)(F)n3c2ccc3-n2cc(CN(C)Cc3ccccc3)nn2)cc1 [MKAC215-18] | –
– | – | – | – | – | – | CCc1ccc(-c2cn(-c3ccc4n3[B-](F)(F)[N+]3=C(N5CCCCC5)C=CC3=C4c3ccc(NC(=O)CCl)cc3)nn2)cc1 [BDCCA-46] | λmax Absorp. ([1]; BDCCA library, Table 4): 464 nm; λmax Emission ([1]; BDCCA library, Table 4): 568 nm; φ (quantum yield) ([2]; BDCCA library, Table 4): 1.2%
– | – | – | 465 | 563 | 20.00 | CCCc1cn(-c2ccc3n2[B-](F)(F)[N+]2=C(NCc4cc(OC)ccc4OC)C=CC2=C3c2ccc(NC(=O)CCl)cc2)nn1 [MKCA181-48] | –
465 | 561 | 16.50 | – | – | – | CCCCCC(O)c1cn(-c2ccc3n2[B-](F)(F)[N+]2=C(NCc4cc(OC)ccc4OC)C=CC2=C3c2ccc(NC(C)=O)cc2)nn1 (racemic) [MKAC181-69] | –
– | – | – | – | – | – | CCCc1cn(-c2ccc3n2[B-](F)(F)[N+]2=C(N4CCCC4)C=CC2=C3c2ccc(N)cc2)nn1 [MK215-48] | λmax Absorp. ([1]; MK library, Table 5): 470 nm; λmax Emission ([1]; MK library, Table 5): 575 nm; φ (quantum yield) ([2]; MK library, Table 5): 0.29%
– | – | – | 466 | 563 | 42.58 | O=C(CCl)Nc1ccc(C2=C3C=CC(NCc4cc(F)cc(F)c4)=[N+]3[B-](F)(F)n3c2ccc3-n2cc(CCc3ccccc3)nn2)cc1 [MKCA412-19] | –
– | – | – | – | – | – | CC(C)Cc1cn(-c2ccc3n2[B-](F)(F)[N+]2=C(NCc4cc(F)cc(F)c4)C=CC2=C3c2ccc(N)cc2)nn1 [MK412-43] | λmax Absorp. ([1]; MK library, Table 5): 476 nm; λmax Emission ([1]; MK library, Table 5): 564 nm; φ (quantum yield) ([2]; MK library, Table 5): 0.86%
– | – | – | 465 | 558 | 14.25 | CCCCCC(O)c1cn(-c2ccc3n2[B-](F)(F)[N+]2=C(NCc4cc(OC)ccc4OC)C=CC2=C3c2ccc(NC(=O)CCl)cc2)nn1 (stereo not drawn) [MKCA181-69] | –
– | – | – | – | – | – | Cc1ccc(-c2cn(-c3ccc4n3[B-](F)(F)[N+]3=C(N5CCCCC5)C=CC3=C4c3ccc(NC(=O)CCl)cc3)nn2)cc1 [BDCCA-10] | λmax Absorp. ([1]; BDCCA library, Table 4): 463 nm; λmax Emission ([1]; BDCCA library, Table 4): 558 nm; φ (quantum yield) ([2]; BDCCA library, Table 4): 2.9%
461 | 569 | 3.81 | – | – | – | CCCC(C)c1cn(-c2ccc3n2[B-](F)(F)[N+]2=C(N4CCCC4)C=CC2=C3c2ccc(NC(C)=O)cc2)nn1 (racemic) [MKAC215-3] | –
– | – | – | – | – | – | COc1ccc2cc(-c3cn(-c4ccc5n4[B-](F)(F)[N+]4=C(N6CCCCC6)C=CC4=C5c4ccc(NC(C)=O)cc4)nn3)ccc2c1 [BDCAC-22] | λmax Absorp. ([1]; BDCAC library, Table 3): 465 nm; λmax Emission ([1]; BDCAC library, Table 3): 585 nm; φ (quantum yield) ([2]; BDCAC library, Table 3): 1.2%
– | – | – | 464 | 565 | 34.56 | Cc1ccccc1CNC1=[N+]2C(=C(c3ccc(NC(=O)CCl)cc3)c3ccc(-n4cc(C5CC5)nn4)n3[B-]2(F)F)C=C1 [MKCA101-4] | –
– | – | – | 465 | 581 | 6.17 | CN(Cc1ccccc1)C1=[N+]2C(=C(c3ccc(NC(=O)CCl)cc3)c3ccc(-n4cc(CC5CCCCC5)nn4)n3[B-]2(F)F)C=C1 [MKCA195-8] | –
– | – | – | 467 | 586 | 6.77 | CN(Cc1ccccc1)C1=[N+]2C(=C(c3ccc(NC(=O)CCl)cc3)c3ccc(-n4cc(CCc5ccccc5)nn4)n3[B-]2(F)F)C=C1 [MKCA195-19] | –
464 | 561 | 18.28 | – | – | – | COc1ccc(OC)c(CNC2=[N+]3C(=C(c4ccc(NC(C)=O)cc4)c4ccc(-n5cc(CN(C)Cc6ccccc6)nn5)n4[B-]3(F)F)C=C2)c1 [MKAC181-18] | –
462 | 576 | 2.35 | – | – | – | CC(=O)Nc1ccc(C2=C3C=CC(N4CCCC4)=[N+]3[B-](F)(F)n3c2ccc3-n2cc(C3CC3)nn2)cc1 [MKAC215-4] | –
– | – | – | – | – | – | CCCc1cn(-c2ccc3n2[B-](F)(F)[N+]2=C(N4CCc5ccccc5C4)C=CC2=C3c2ccc(N)cc2)nn1 [MK66-48] | λmax Absorp. ([1]; MK library, Table 5): 480 nm; λmax Emission ([1]; MK library, Table 5): 581 nm; φ (quantum yield) ([2]; MK library, Table 5): 0.12%
– | – | – | 465 | 581 | 2.58 | CN(Cc1ccccc1)C1=[N+]2C(=C(c3ccc(NC(=O)CCl)cc3)c3ccc(-n4cc(CO)nn4)n3[B-]2(F)F)C=C1 [MKCA195-70] | –
461 | 565 | 1.83 | – | – | – | CC(=O)Nc1ccc(C2=C3C=CC(N4CCCC4)=[N+]3[B-](F)(F)n3c2ccc3-n2cc(CC(C)C)nn2)cc1 [MKAC215-43] | –
467 | 562 | 13.79 | – | – | – | COc1ccc(OC)c(CNC2=[N+]3C(=C(c4ccc(NC(C)=O)cc4)c4ccc(-n5cc(CC(C)C)nn5)n4[B-]3(F)F)C=C2)c1 [MKAC181-43] | –
– | – | – | 466 | 561 | 36.09 | CCCc1cn(-c2ccc3n2[B-](F)(F)[N+]2=C(NCc4cc(F)cc(F)c4)C=CC2=C3c2ccc(NC(=O)CCl)cc2)nn1 [MKCA412-48] | –
– | – | – | – | – | – | Nc1ccc(C2=C3C=CC(N4CCCCC4)=[N+]3[B-](F)(F)n3c2ccc3-n2cc(-c3cccc(F)c3)nn2)cc1 [BDC-31] | λmax Absorp. ([1]; BDC library, Table 2): 470 nm; λmax Emission ([1]; BDC library, Table 2): 582 nm; φ (quantum yield) ([2]; BDC library, Table 2): 0.11%
465 | 559 | 15.37 | – | – | – | COc1ccc(OC)c(CNC2=[N+]3C(=C(c4ccc(NC(C)=O)cc4)c4ccc(-n5cc(CO)nn5)n4[B-]3(F)F)C=C2)c1 [MKAC181-70] | –
– | – | – | 468 | 563 | 37.83 | CC(C)Cc1cn(-c2ccc3n2[B-](F)(F)[N+]2=C(NCc4cc(F)cc(F)c4)C=CC2=C3c2ccc(NC(=O)CCl)cc2)nn1 [MKCA412-43] | –
– | – | – | – | – | – | Nc1ccc(C2=C3C=CC(N4CCCCC4)=[N+]3[B-](F)(F)n3c2ccc3-n2cc(-c3cc(C(F)(F)F)cc(C(F)(F)F)c3)nn2)cc1 [BDC-30] | λmax Absorp. ([1]; BDC library, Table 2): 466 nm; λmax Emission ([1]; BDC library, Table 2): 547 nm; φ (quantum yield) ([2]; BDC library, Table 2): 0.57%
– | – | – | – | – | – | Nc1ccc(C2=C3C=CC(N4CCc5ccccc5C4)=[N+]3[B-](F)(F)n3c2ccc3-n2cc(C3CC3)nn2)cc1 [MK66-4] | λmax Absorp. ([1]; MK library, Table 5): 479 nm; λmax Emission ([1]; MK library, Table 5): 587 nm; φ (quantum yield) ([2]; MK library, Table 5): 0.12%
– | – | – | 463 | 569 | 3.99 | CCCC(C)c1cn(-c2ccc3n2[B-](F)(F)[N+]2=C(N4CCCC4)C=CC2=C3c2ccc(NC(=O)CCl)cc2)nn1 (stereo not drawn) [MKCA215-3] | –
– | – | – | – | – | – | Cc1ccccc1CNC1=[N+]2C(=C(c3ccc(N)cc3)c3ccc(-n4cc(C5CCCC5)nn4)n3[B-]2(F)F)C=C1 [MK101-5] | λmax Absorp. ([1]; MK library, Table 5): 475 nm; λmax Emission ([1]; MK library, Table 5): 565 nm; φ (quantum yield) ([2]; MK library, Table 5): 0.58%
